Test systems include 786-0 renal; COLO 205 colon; EKVX NSCLC; K-562 leukemia; MDA-MB-435; MDA-N; SK-MEL-2 melanoma; SK-MEL-5 melanoma; SR leukemia; T-47D breast.
Common to all, as to assay: NCI anticancer screen, dose series, 48 h

The source of these data is PubChem BioAssay (NCI).

Where “and” joins values, the source holds several entries; their conditions need not be identical. Equal values may be shown once.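 Values below derive from 48-hour exposures of cells grown in 96-well plates, with endpoints linearly interpolated between the two concentrations bracketing the appropriate inhibition level. At the GI50, growth is halved. TGI denotes the concentration required for complete inhibition of growth.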

With `O=C1CCC2(O)C3Cc4ccc(Oc5nnnn5-c5ccccc5)c5c4C2(CCN3CC2CC2)C1O5` (centres undefined), the TGI is 41.2 µM in the assay with 786-0 renal; 32.9 µM in the assay on COLO 205 colon; over 100 µM in the assay with EKVX NSCLC; over 100 µM in the assay with K-562 leukemia; 37 µM in the assay on MDA-MB-435; 51 µM with MDA-N. The TGI is 53.1 µM in the assay on SK-MEL-2 melanoma, 25.9 µM in the assay with SK-MEL-5 melanoma, 42.9 µM in the assay on SR leukemia and over 100 µM in the assay with T-47D breast.

Regarding `C=C(Br)CNCC(=C)Br`, the TGI with 786-0 renal, in the assay on COLO 205 colon, in the assay on EKVX NSCLC, in the assay with K-562 leukemia, with MDA-MB-435 and in the assay on MDA-N was over 100 µM throughout. Further, the TGI in the assay with SK-MEL-2 melanoma, in the assay on SK-MEL-5 melanoma, in the assay with SR leukemia and with T-47D breast was over 100 µM throughout.

`COC(=O)/C(=C\c1ccco1)P(=O)(OC)OC`: the TGI in the assay with 786-0 renal, in the assay on COLO 205 colon, with EKVX NSCLC, in the assay on K-562 leukemia, in the assay with MDA-MB-435 and in the assay with MDA-N was over 100 µM each time. The TGI in the assay with SK-MEL-2 melanoma is 83.4 µM; in the assay on SK-MEL-5 melanoma, over 100 µM; with SR leukemia, over 100 µM; in the assay on T-47D breast, over 100 µM.

`CC(NNC(=O)c1ccncc1)c1ccc(Cl)c(Cl)c1` (centres undefined): the TGI in the assay with 786-0 renal, in the assay on COLO 205 colon, in the assay on EKVX NSCLC, with K-562 leukemia, in the assay with MDA-MB-435 and in the assay on MDA-N was over 100 µM in each case. For the same molecule, the TGI in the assay on SK-MEL-2 melanoma, in the assay on SK-MEL-5 melanoma, with SR leukemia and in the assay with T-47D breast was over 100 µM each time.

With `CCOC(=O)C(NC(=O)CC)(Nc1ccc(S(=O)(=O)Nc2nc(C)cc(C)n2)cc1)C(F)(F)F` (centres undefined), the TGI in the assay on 786-0 renal, in the assay with COLO 205 colon, with EKVX NSCLC, in the assay on K-562 leukemia, in the assay on MDA-MB-435 and with MDA-N was over 100 µM each time. In addition, the TGI with SK-MEL-2 melanoma, with SK-MEL-5 melanoma, with SR leukemia and with T-47D breast was over 100 µM in each case.

With `Cc1cc(S(=O)(=O)Nc2nc3ccccc3n2-c2ccccc2)c(S)cc1Cl`, the TGI in the assay on 786-0 renal, in the assay on COLO 205 colon, with EKVX NSCLC, with K-562 leukemia, with MDA-MB-435 and in the assay on MDA-N was over 100 µM throughout. The TGI in the assay with SK-MEL-2 melanoma, in the assay on SK-MEL-5 melanoma, in the assay on SR leukemia and in the assay with T-47D breast was over 100 µM each time.

`CC(C)C(C/C=C1/CC(CO)(COC(=O)C2CCCCC2)OC1=O)C(C)C` (centres undefined): the TGI with 786-0 renal was 26.9 µM; with COLO 205 colon it was 20.9 µM; with EKVX NSCLC it was 42.8 µM; in the assay with K-562 leukemia, over 100 µM; with MDA-MB-435, over 100 µM; in the assay with MDA-N, 38.8 µM. The TGI is over 100 µM in the assay with SK-MEL-2 melanoma, over 100 µM in the assay with SK-MEL-5 melanoma, over 100 µM in the assay with SR leukemia and 45.9 µM with T-47D breast.

As for `Cc1ccc(OCC2OC(n3cnc4c(Cl)ncnc43)CC2Oc2ccc(C)cc2)cc1` (centres undefined), the TGI is > 73.4 µM and 51.7 µM in the assay on 786-0 renal; 19.4 µM and 74.4 µM in the assay on COLO 205 colon; 7.18 µM and 10.2 µM in the assay on EKVX NSCLC; > 23.9 µM and 61.8 µM in the assay on K-562 leukemia; 21 µM and 16.4 µM in the assay with MDA-MB-435; 11.2 µM and 35.7 µM in the assay on MDA-N. For the same molecule, the TGI in the assay with SK-MEL-2 melanoma was 30.2 µM and 33.8 µM; with SK-MEL-5 melanoma, 30.5 µM and 34.9 µM; with SR leukemia, over 22.7 µM; in the assay on T-47D breast, 49.5 µM and > 100 µM. The GI50 with COLO 205 colon was 6.45 µM and 20.8 µM; in the assay with MDA-MB-435, 5.84 µM and 2 µM; with MDA-N it was 4.63 µM and 16.6 µM; with T-47D breast, 8.39 µM and 29.2 µM.
